US20070087988A1, “Hematopoietic progenitor kinase 1 for modulation of an immune response” (New York University, priority 2005, published 2007)

Experiments:
HPK1 [1] = assay: Western blot of immunoprecipitated HPK1 with anti-phosphorylated PKA substrate antibody; assay type: cell-based, human; details: Jurkat T cells stimulated with PGE2 for 10 min
Procedure: The primary sequence of HPK1 was examined for the preferred PKA phosphorylation site on HPK1. Within the activation loop of HPK1, there exists a perfect PKA phosphorylation site at serine 171 (FIG. 12A). This serine is conserved in all members of the KHS subfamily of STE20 kinases. To determine whether PKA can directly phosphorylate HPK1 upon stimulation by PGE2, experiments were conducted using an anti-phospho PKA substrate antibody that recognizes the arginine-based motif that is present at sites that are phosphorylated by PKA (FIG. 12A).
In these experiments, Jurkat T cells were stimulated with PGE2 for 10 min., lysed, and immunoprecipitated HPK1 was subjected to Western blot analysis using anti-phosphorylated PKA substrate antibody. […] Similarly, the antibody also recognized HPK1 immunoprecipitated from cells that were treated with anti-CD3 (FIG. 12B, lane 2).

HPK1 [2] = assay: HPK1 IVK assay in primary splenocytes / T lymphocytes; assay type: cell-based, mouse; details: primary T lymphocytes (C57BL/6 splenocytes), 10 nM PGE2, 5 min
Procedure: Splenocytes from wild type C57BL/6 were harvested, lysed with RBC lysis buffer (Sigma) and stimulated with 1 μg/ml plate bound anti-CD3 and anti-CD28 or 10 nM PGE2 alone (Calbiochem) for 5 min. at 37° C. Whole cell lysates were subjected to immunoprecipitation with anti-HPK1 antibodies #5 and #6, then subjected to IVK as described in Kiefer et al. (1996, EMBO J. 15:7013-7025). Anti-HPK1 antibody #2 was used as a blotting antibody.
Splenocytes from wild type C57BL/6 were harvested, lysed with RBC lysis buffer (Sigma) and stimulated with 1 μg/ml plate bound anti-CD3 and 1 μg/ml soluble anti-CD28 or with 10 nM PGE2 (Calbiochem) for 5 min. at 37° C. Whole cell lysates were subjected to immunoprecipitation with anti-HPK1 antibodies #5 and #6 and then subjected to IVK as described (1). Anti-HPK1 antibody #2 was used as a blotting antibody.

EP4 receptor = EP4 receptor (Homo sapiens, UniProt P35408); assay: IVK assay of HA-HPK1 from 293-EP4 transfectants; details: PGE2 stimulation
tyrosine phosphorylation = assay: Anti-phosphotyrosine immunoblotting of Jurkat lysates and HPK1 immunoprecipitates; assay type: cell-based, human; details: 10 pM PGE2
Procedure: Cells were lysed in a buffer containing 1% Nonidet P-40 (NP-40) and 50 mM Tris, pH 7.6, 150 mM NaCl, 1 mM […], 10 mM NaF, 10 mM sodium pyrophosphate, 10 μg/ml each of aprotinin and leupeptin, and 2 mM phenylmethylsulfonyl fluoride (PMSF). The lysates were pre-cleared with protein A-Sepharose™ and subsequently, proteins were immunoprecipitated with either 2 μg of anti-Crk antibody or an equal amount of normal rabbit Ig by incubation at 4° C. for two hours. The beads were washed with 0.1% NP-40 in immunoprecipitation wash buffer (150 mM NaCl, 20 mM HEPES, pH 7.4, 10% glycerol, 1 mM […], 5 mM NaF, and 10 μg/ml each of aprotinin and leupeptin), and the bead-bound proteins were separated by SDS-PAGE. The proteins were transferred to a polyvinylidene fluoride (PVDF) membrane, immunoblotted with the indicated antibodies and developed by the enhanced chemiluminescence (ECL) system (Amersham Corp., Arlington Heights, Ill.).
It has been reported that binding of PGE2 to its GPCR leads to rapid activation of HPK1 kinase activity (Sawasdikosol et al., 2003, Blood 101:3687). […] First, it was assessed whether PGE2 stimulation would induce general tyrosine phosphorylation in the Jurkat T cell line was examined. […]

T cells [3] = assay: T cell proliferation on anti-CD3/anti-CD28 TCR crosslinking, 3H-thymidine; assay type: cell-based, mouse
Procedure: Naïve T cells (2×10^5) were seeded onto a 96-well plate and incubated with 1 μg/ml anti-CD3 and anti-CD28 or 10 μg/ml ConA for three days in the presence or absence of 100 pM PGE2 and then pulsed with 1 μCi/well ^3H thymidine (MP Biomedicals, Irvine, Calif.) for 18 hours before harvesting.
T cells were negatively selected using the Pan T cell isolation kit (Miltenyi Biotech Inc., Auburn, Calif.). […] 2×10^5 Naïve T cells were seeded on a 96-well plate and incubated with various dilutions of anti-CD3 and 1 μg/ml of anti-CD28 for 72 hours in the presence or absence of 1 nM PGE2 and then pulsed with 1 μCi/well ^3H thymidine (MP Biomedicals, Irvine, Calif.) for 18 hours before harvest.

EP2 receptor = molecular target: T1, EP2 receptor (Homo sapiens, UniProt P43116); assay: IVK assay of HA-HPK1 from 293-EP2 transfectants; assay type: cell-based; details: PGE2 stimulation
T1 construct: expressed in transfected cells; host or cells: HEK 293 (293-EP2), also transiently transfected with HA-HPK1

T cells [4] = assay: Mixed leukocyte reaction (MLR) T cell proliferation, 3H-thymidine; assay type: cell-based, mouse; details: MLR with LPS-matured BMDCs, addition of PGE2
Procedure: MLR was performed as described in Sallusto et al. (1994, J. Exp. Med. 179:1009-1118) with minor modifications. Naïve T cells from an allogeneic SJL mouse were purified using CD62L magnetic beads (Milentyi Biotech, Inc., CA). In a 96-well round bottom plate, T cells (1×10^5) were used as responders and incubated with HPK1^−/− and wild type, immature or LPS-matured bone marrow derived dendritic cells (BMDCs) as stimulators. Naïve T cells plus 10 μg/ml ConA were used as a positive control.
In these experiments, T cells were purified and subjected to a mixed leukocyte reaction (MLR) with wild type allogeneic BMDCs in the presence or absence of PGE2. […] To assess this, the same study was repeated under conditions where the magnitude of the MLR response was similar in the two cell types by manipulating the T cell to DC ratio. […] Similar resistance to PGE2 was observed when HPK1^−/− T cells were stimulated by T cell receptor activation with anti-CD3- and anti-CD28-mediated crosslinking in the presence of PGE2 (FIG. 20B).

[5] = Example 4, 100 pM PGE2, three days

T1 sequence (P43116 whole entry): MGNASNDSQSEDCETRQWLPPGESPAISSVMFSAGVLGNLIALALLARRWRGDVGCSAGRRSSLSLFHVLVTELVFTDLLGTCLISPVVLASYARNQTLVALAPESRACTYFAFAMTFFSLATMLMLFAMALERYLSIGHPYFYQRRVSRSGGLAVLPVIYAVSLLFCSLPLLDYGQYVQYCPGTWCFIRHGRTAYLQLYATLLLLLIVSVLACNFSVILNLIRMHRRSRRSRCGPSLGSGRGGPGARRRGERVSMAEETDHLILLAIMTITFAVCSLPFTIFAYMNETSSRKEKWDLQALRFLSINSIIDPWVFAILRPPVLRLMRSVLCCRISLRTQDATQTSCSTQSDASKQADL
Chain of EP4 receptor (P35408 whole entry): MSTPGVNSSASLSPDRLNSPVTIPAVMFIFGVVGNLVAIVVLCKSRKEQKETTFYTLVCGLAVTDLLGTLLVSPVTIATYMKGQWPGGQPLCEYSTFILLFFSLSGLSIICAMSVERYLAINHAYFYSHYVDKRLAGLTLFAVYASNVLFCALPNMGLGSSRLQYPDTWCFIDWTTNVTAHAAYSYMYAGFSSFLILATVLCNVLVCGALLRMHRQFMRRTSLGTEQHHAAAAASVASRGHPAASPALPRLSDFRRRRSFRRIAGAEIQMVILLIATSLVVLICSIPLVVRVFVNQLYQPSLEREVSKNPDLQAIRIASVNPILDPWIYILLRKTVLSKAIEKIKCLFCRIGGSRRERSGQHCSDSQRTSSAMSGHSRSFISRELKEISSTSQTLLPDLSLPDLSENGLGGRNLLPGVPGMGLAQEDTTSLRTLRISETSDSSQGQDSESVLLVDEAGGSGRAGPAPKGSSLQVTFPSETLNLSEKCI

Structure (SMILES): CCCCC[C@H](O)/C=C/[C@H]1[C@H](O)CC(=O)[C@@H]1C/C=C\CCCC(=O)O [PGE2, prostaglandin E2]
- recognition of HPK1 by anti-phosphorylated PKA substrate antibody (HPK1 [1]): recognized the phosphorylated HPK1
- increase in HPK1 kinase activity (HPK1 [2]): three-fold
- HPK1 kinase activity (IVK), 293-EP4 transfectants (EP4 receptor): responded robustly
- global tyrosine phosphorylation level (tyrosine phosphorylation; Jurkat whole cell lysates): no detectable change
- tyrosine phosphorylation of HPK1 (tyrosine phosphorylation; immunoprecipitated HPK1, Jurkat): did not induce detectable tyrosine phosphorylation
- inhibition of proliferation, HPK1−/− T cells, anti-CD3/anti-CD28 (T cells [3]; [5]): 18%
- inhibition of proliferation, wild type T cells, anti-CD3/anti-CD28 (T cells [3]; [5]): ~80%
- inhibition of proliferation, HPK1−/− T cells, TCR cross-linking (T cells [3]; Example 8, 1 nM PGE2, 72 hours): ~20%
- inhibition of proliferation, wild type T cells, TCR cross-linking (T cells [3]; Example 8, 1 nM PGE2, 72 hours): ~80%
- HPK1 kinase activity (IVK), 293-EP2 transfectants (EP2 receptor): responded robustly
- inhibition of proliferation, HPK1−/− T cells, MLR (T cells [4]): ~25%
- inhibition of proliferation, wild type T cells, MLR (T cells [4]): ~90%
